In patent US20180280480A1, “COMPOSITIONS AND PEPTIDES HAVING DUAL GLP-1R AND GLP-2R AGONIST ACTIVITY” (priority 2014, published 2018):
Marks after values point to notes of the source that are not given here.

Legend:
Assay type in all cases: in vivo
[1] = tested on: Diet Induced Obese (DIO) Sprague-Dawley Rats; test: Oral glucose tolerance test in DIO Sprague-Dawley rats
[2] = tested on: Diet Induced Obese (DIO) Sprague-Dawley Rats; test: Small and large intestinal volume (stereology) in DIO Sprague-Dawley rats
Description: Thirty (30) male Sprague-Dawley rats (7 weeks of age) were purchased from Taconic (Denmark) and transferred to the Gubra animal unit. During the acclimatization period, the rats were housed two per cage under a 12:12 light dark cycle (lights on from 04.00-16.00 h) at controlled temperature conditions (22±1° C.; 50±10% relative humidity). Throughout the study the rats had ad libitum access to a two choice diet—regular Altromin 1324 rodent chow (Brogaarden, Denmark) and a paste made from Chocolate spread (Nutella, Ferrero Italy), peanut butter and powdered regular Altromin 1324 rodent chow (Brogaarden, Denmark). The animals were kept on the diet for 65 weeks before experimentation. Animals were switched to single housing during the entire study period (day −6 to 25).
The animals were randomized into three study groups (n=10 per group) based on body weight recorded on day −1 to participate in one of the following groups: Group 1: Vehicle, SC, BID. Group 2: SEQ ID NO 6, 82 nmol/kg (day 2-7), 164 nmol/kg (day 8-14) and 328 nmol/kg (day 15-25), SC, BID. […] Body weight was measured from day −3 to termination on day 25. Total body fat mass was analyzed before study start (day −1) and before termination (study day 25) by non-invasive EchoMRI-900 (EchoMRI, USA). […] Blood glucose was measured from tail vein blood before (t=−120 and 0 min, baseline) and after glucose administration (t=15, 30, 60 and 120 min). Blood samples was collected into 10 μl heparinized glass capillary tubes and immediately suspended in buffer (0.5 ml of glucose/lactate system solution (EKF-diagnostics, Germany) and analyzed for glucose on the test day using a BIOSEN c-Line glucose meter (EKF-diagnostics, Germany) according to manufacturer's instructions. On study day 25, the rats were terminated and the GI tract was removed. Intestines were flushed with saline, weighed and then fixated in 4% PFA for determination of small and large intestinal volume by stereological methods as described by Hansen et al. 2013, Am J Transl Res 5(3): 347-58).

[3] = tested on: diabetic db/db (BKS.Cg-m+/+Leprdb/J) male mice; test: Intestinal volume and surface area (stereology) in diabetic db/db mice; conditions: for Large intestine surface area / Large intestine volume / Small intestine surface area / Small intestine volume: Day 58, mean ± S.E.M.
Description: A total of forty-six (46) diabetic db/db (BKS.Cg-m+/+Leprdb/J) male mice, 5 weeks old at arrival, was obtained from Janvier (France). […] They were housed in groups of n=2 in a light-, temperature-, and humidity-controlled room (12-hour light: 12-hour dark cycle, lights On/Off at 04.00/16.00 h; 22±1° C.; 50±10% relative humidity). During the habituation period animals was accustomed to the experimental paradigm.
Baseline, free fed blood glucose samples were obtained bi-weekly prior to study start (blood was collected from the tail vein) in order to screen for the diabetic state. The 40 animals closest to the mean BG/BW value at day −3 were randomized into 4 groups (n=10/group; the remaining 6 animals was be discarded from the main study): Group 1: Vehicle, BID, SC. […] During day 0-58 of the experiment, animals received a subcutaneous dosing twice daily at 06.00-08.00 hours and again between 02.00-04.00 hours. Dose volume was 5 ml/kg.
At the end of the study period mice were terminated by decapitation under isoflurane anaesthesia. The entire intestine was dissected out and divided into small and large which was then measured in length.

[4] = tested on: C57BL/6J mice; test: Acute food intake in C57BL/6J mice; conditions: for Total food intake (g/animal): Day 0: 0-[…] (lights off), mean ± SEM
Description: The C57BL/6J mice arrived 7 days prior to the initiation of the study. During these days, animals were handled daily to accustom them to the experimental paradigm. At Day −1, the mice were randomised according to body weight to participate in one of following drug treatment groups (n=6-8 in each group): Group 1: vehicle. […] Group 3-5: SEQ ID NO 3; 3.0; 1.0; 0.3 mg/kg. Group 6-8: SEQ ID NO 4; 3.0; 1.0; 0.3 mg/kg. Group 9-11: SEQ ID NO 5; 3.0; 1.0; 0.3 mg/kg. Group 12-14: SEQ ID NO 6; 3.0; 1.0; 0.3 mg/kg. Group 15-17: SEQ ID NO 7; 3.0; 1.0; 0.3 mg/kg. Three days prior to initiation of dosing, all animals were handled daily and accustomed to the experimental conditions by subcutaneous mock injections (i.e. nipping the skin of the back). Baseline food intake was monitored four days prior to the study. Mice were randomized according to body weight on Day −1. Animals were subjected to two separate injections. First acute dose was administered prior to lights out at Day 0 and food intake was monitored 24 hours post dosing. On Day 3, mice were re-randomised into new treatment groups and dosed prior to lights out. Food intake was monitored 24 hours post dosing. Body weight was measured daily from Day −5 and throughout the study. The study was terminated on Day 5. […] Dosing took place prior to lights out in the afternoon (between 13.30 and 14.00). Doses were administered subcutaneously (dose volume 5 ml/kg). Food intake data was collected using the HM-2 system, an online computerized feeding system using digital weighing cells. Food intake and body weight were measured from Day −7 and throughout the study. […]

[5] = Day 25, 328 nmol/kg, mean ± S.E.M.

## R^1-HGDGSFTSELSTYLDALAARDFIAWLIQTKITDR^2 [SEQ ID NO 6]
[1]; DIO rats, Table 15
  effect on glucose tolerance: improved glucose tolerance
[1]; Day 23, 328 nmol/kg, mean ± S.E.M.
  Blood glucose during an oral glucose tolerance test. Area under the curve (AUC) −45 to 240 min.: 1731 ± 77.0 mmol·min/L
[2]; [5]
  Large intestine volume: 2.64 ± 0.17 cm^3
  Small intestine volume: 8.50 ± 0.62*** cm^3
[2]; treatment for 25 days, stereology
  effect on small intestine volume: striking increase in small intestine volume
[3]; 8 weeks of treatment, 50 and 250 nmol/kg
  effect on small intestine volume and surface area: marked increase in small intestine volume as well as surface area
[3]; 50 nmol/kg BID SC
  Large intestine surface area: 3.6 ± 1.2 cm^2
  Large intestine volume: 274.2 ± 7.0 mm^3
  Small intestine surface area: 348.9 ± 10.8*** cm^2
  Small intestine volume: 2097 ± 72.7*** mm^3
[3]; 250 nmol/kg BID SC
  Large intestine surface area: 18.6 ± 1.9 cm^2
  Large intestine volume: 288.2 ± 23.7 mm^3
  Small intestine surface area: 344.0 ± 20.8*** cm^2
  Small intestine volume: 2043 ± 62.3*** mm^3
[4]; single SC dose 0.3 mg/kg
  Total food intake (g/animal): 0.33 ± 0.17 g/animal
[4]; single SC dose 1 mg/kg
  Total food intake (g/animal): 0.13 ± 0.08 g/animal
[4]; single SC dose 3 mg/kg
  Total food intake (g/animal): 0.06 ± 0.03 g/animal
[4]; among SEQ ID NO 3-7, Table 4
  ranking as inhibitor of food intake after […]: most effective inhibitor of food intake
[4]; single dose 0.3-3 mg/kg
  food intake after […] compared to vehicle: significantly reduced food intake
